Data taken from patent US8304422B2, “Compositions and methods for inhibition of the JAK pathway” (Rigel Pharmaceuticals, Inc., priority 2007, dated 2012).

The molecules below were run on BaF3 V617F cells; UKE-1 (assay: Proliferation Assay (Cell Titer-Glo; Example 7)). Conditions: proliferation 72 hours, inhibit JAK2 activity, cell line (BaF3 V617F or UKE-1) not stated.
Assay type: cell-based
Protocol: BaF3 V617F cells are maintained and plated in RPMI with 10% FBS. Plating density for these cells is 1×10^5 cells/mL.
UKE-1 are maintained and plated in Iscove's DMEM containing 10% FBS, 10% equine serum, 1% penicillin/streptomycin and 1 uM hydrocortisone. Plating density for these cells is 0.4×10^6 cells/mL
The cells were resuspended in a corresponding medium at a required cell density (see above). 100μ of cell suspension was added to each well of a flat bottom 96 well white plate. The compound was serially diluted in DMSO from 5 mM in 3-fold dilutions, and then diluted 1:250 in the RPMI 1640 medium containing 5% FBS and pen/strep. 100 μL of resulting 2× compound solution was added per well in duplicate and the cells were allowed to proliferate for 72 hours at 37° C.
Proliferation was measured using Cell Titer-Glo. The substrate was thawed and allowed to come to room temperature. After removal of top 100 μL of medium from each well, 100 μL of the premixed Cell Titer-Glo reagent was added to each well. The plates were mixed on an orbital shaker for three minutes to induce lysis and incubated at ambient temperature for an additional five minutes to allow the signal to equilibrate. The Luminescence was read on the Wallac Plate Reader.
The results of the ability of the compounds of the invention to inhibit JAK2 activity, when tested in the above assay, are shown in the following Table XI wherein the level of activity (i.e., the IC50) for each compound is indicated in Table XI. The compound numbers in Table XI refers to the compounds disclosed herein as being prepared by the methods disclosed herein: […]

Molecule | IC50 [nM]
Cc1cnc(Nc2ccc(N3CCN(C4CC5CCC4C5)CC3)cc2)nc1Nc1ccc(CNS(=O)(=O)C2CC2)cc1 (stereo not shown) [II-60, N-(4-(2-(4-(4-(bicyclo[2.2.1]heptan-2-yl)piperazin-1-yl)phenylamino)-5-methylpyrimidin-4-ylamino)benzyl)cyclopropanesulfonamide] | 391
COc1cc(Nc2ncc(C)c(Nc3ccc(CNS(=O)(=O)C4CC4)cc3)n2)cc(C)c1OC [II-197, 5-Methyl-N4-[4-(N-cyclopropylsulfonylamino)methylphenyl]-N2-[3,4-dimethoxy-5-methylphenyl]-2,4-pyrimidinediamine] | 92
CCc1cnc(Nc2cc(C)c(OC)c(Cl)c2)nc1Nc1ccc(CNS(=O)(=O)C2CC2)cc1 [II-83, N2-(3-Chloro-4-methoxy-5-methylphenyl)-N4-[4-(N-cyclopropylsulfonylamino)methylphenyl]-5-ethyl-2,4-pyrimidinediamine] | 1390
CCNS(=O)(=O)NCc1cccc(Nc2nc(Nc3cc(C)c(OC)c(C)c3)ncc2Cl)c1 [II-129, 5-Chloro-N2-(3,5-dimethyl-4-methoxyphenyl)-N4-[(3-(ethylamino)sulfonylamino)methylphenyl]-2,4-pyrimidinediamine] | 127
Cc1cnc(Nc2ccc(N3CCC(F)(F)CC3)cc2)nc1Nc1ccc(CNS(=O)(=O)N(C)C)cc1 [II-105, N4-[(4-(Dimethylamino)sulfonylamino)methylphenyl]-N2-[4-(4,4-difluoro-1-piperidinyl)phenyl]-5-methyl-2,4-pyrimidinediamine] | 20300
Cc1cc(Nc2ncc(Cl)c(Nc3ccc(CNS(=O)(=O)C4CC4)cc3)n2)cc(C)c1OC(C)C [II-220, 5-Chloro-N4-[4-(N-cyclopropylsulfonylamino)methylphenyl]-N2-[3,5-dimethyl-4-(2-propoxy)phenyl]-2,4-pyrimidinediamine] | 121
COc1c(C)cc(Nc2ncc(C)c(Nc3ccc(CNS(=O)(=O)N(C)C)cc3)n2)cc1C [II-99, 4-[(4-(Dimethylamino)sulfonylamino)methylphenyl]-N2-(3,5-dimethyl-4-methoxyphenyl)-5-methyl-2,4-pyrimidinediamine] | 103
Cc1cnc(Nc2ccc(C3CCN(C)CC3)cc2)nc1Nc1ccc2c(c1)C(NS(=O)(=O)C1CC1)CC2 (racemic) [V-5, (+/−)-N4-[1-(Cyclopropylsulfonylamino)indan-6-yl]-5-methyl-N2-[4-(1-methyl-4-piperidinyl)pheny]-2,4-pyrimidinediamine] | 999
COc1cc(Nc2ncc(C)c(Nc3ccc(CNS(=O)(=O)NC4CC4)cc3)n2)cc(C)c1OC [II-166, N4-[4-((N-Cyclopropylamino)sulfonylamino)methylphenyl]-N2-(3,4-dimethoxy-5-methylphenyl)-5-methyl-2,4-pyrimidinediamine] | 247
CCNS(=O)(=O)NCc1ccc(Nc2nc(Nc3cc(C)c(OC)c(C)c3)ncc2Cl)c(C)c1 [II-142, 5-Chloro-N2-(3,5-dimethyl-4-methoxyphenyl)-N4-[2-methyl-4-(ethylaminosulfonylamino)methylphenyl]-2,4-pyrimidinediamine] | 485
Cc1cc(Nc2ncc(Cl)c(Nc3ccc(CNS(=O)(=O)NC4CC4)cc3)n2)cc(C)c1OC(C)C [II-156, 5-Chloro-N4-[4-((N-cyclopropylamino)sulfonylamino)methylphenyl]-N2-(3,5-dimethyl-4-(1-methyl)ethoxyphenyl)-2,4-pyrimidinediamine] | 58.1
Cc1cnc(Nc2cc(C)c(OCCN3CCOCC3)c(C)c2)nc1Nc1cccc(S(=O)(=O)NC(C)(C)C)c1 [I-20] | 189
CCNS(=O)(=O)NCc1ccc(Nc2nc(Nc3cc(C)c(OCC)c(C)c3)ncc2Cl)c(C)c1 [II-143, 5-Chloro-N2-(3,5-dimethyl-4-ethoxyphenyl)-N4-[2-methyl-4-(ethylaminosulfonylamino)methylphenyl]-2,4-pyrimidinediamine] | 252
5-Chloro-N4-[4-(N-cyclopropylsulfonylamino)methylphenyl]-N2-[5-methyl-4-(N-methylpiperizin-4-yl)pyridin-3-yl]-2,4-pyrimidinediamine [II-225] | 120
CCOc1c(C)cc(Nc2ncc(Cl)c(Nc3ccc(CNS(=O)(=O)NC4CC4)cc3C)n2)cc1C [II-176, 5-Chloro-N2-(3,5-dimethyl-4-ethoxyphenyl)-N4-[2-methyl-4-((N-cyclopropylamino)sulfonylamino)methylphenyl]-2,4-pyrimidinediamine] | 190
Cc1cc(N2CCN(C)CC2)ccc1Nc1ncc(Cl)c(Nc2ccc(CCNS(=O)(=O)C3CC3)cc2)n1 [II-52, 5-Chloro-N4[4-(N-cyclopropylsulfonylamino)ethylphenyl]-N2-[4-(4-methylpiperazino)-2-methylphenyl]-2,4-pyrimidinediamine] | 6120
CCOc1c(C)cc(Nc2ncc(Cl)c(Nc3ccc(CNS(=O)(=O)C4CC4)cc3C)n2)cc1C [II-151, 5-Chloro-N2-(3,5-dimethyl-4-ethoxyphenyl)-N4-[2-methyl-4-(N-cyclopropylsulfonylamino)methylphenyl]-2,4-pyrimidinediamine] | 398
5-Chloro-N4-[4-(N-cyclopropylsulfonylamino)methylphenyl]-N2-[3,4-dimethyl-4-(2-(4-morpholinyl)ethoxy)phenyl]-2,4-pyrimidinediamine [II-160] | 29.9
CCNS(=O)(=O)NCc1ccc(Nc2nc(Nc3ccc(N4CCC(F)(F)CC4)cc3)ncc2C)cc1 [II-123, N2-[4-(4,4-Difluoro-1-piperidinyl)phenyl]-N4-[(4-(ethylamino)sulfonylamino)methylphenyl]-5-methyl-2,4-pyrimidinediamine] | 373
CCOc1cc(Nc2ncc(C)c(Nc3ccc(CNS(=O)(=O)C4CC4)cc3)n2)cc(OC)c1OC [II-209, 5-Methyl-N4-[4-(N-cyclopropylsulfonylamino)methylphenyl]-N2-[3,4-dimethoxy-5-ethoxyphenyl]-2,4-pyrimidinediamine] | 317
CCNS(=O)(=O)NCc1ccc(Nc2nc(Nc3cc(OC)c(OC)c(OC)c3)ncc2Cl)cc1 [II-112, 5-Chloro-N4-[(4-(ethylamino)sulfonylamino)methylphenyl]-N2-(3,4,5-trimethoxyphenyl)-2,4-pyrimidinediamine] | 431
Cc1cnc(Nc2ccc(N3CCN(C)CC3)cc2)nc1Nc1cccc(S(=O)(=O)N(C)C)c1 [I-14, N4-[(3-(1,1-Dimethylamino)sulfonyl)phenyl]-5-methyl-N2-[4-(4-methyl-1-piperazinyl)phenyl]-2,4-pyrimidinediamine] | 225
5-Methyl-N4-[4-(N-cyclopropylsulfonylamino)methylphenyl]-N2-[4-(1-morpholinomethyl)phenyl]-2,4-pyrimidinediamine [II-222] | 946
Cc1cc(CNS(=O)(=O)NC2CC2)ccc1Nc1nc(Nc2ccc(N3CCN(C)CC3)cc2)ncc1Cl [II-180, 5-Chloro-N4-[2-methyl-4-((N-cyclopropylamino)sulfonylamino)methylphenyl]-N2-[4-(4-methyl-1-piperazinyl)phenyl]-2,4-pyrimidinediamine] | 633
Cc1cnc(Nc2ccc(N3CCN(C)CC3)nc2)nc1Nc1ccc(CNS(=O)(=O)NC2CC2)cc1 [II-173, N4-[4-((N-Cyclopropylamino)sulfonylamino)methylphenyl]-5-methyl-N2-[6-(4-methyl-1-piperazinyl)-3-pyridinyl]-2,4-pyrimidinediamine] | 2340
